Laboratory results: PubChem BioAssay AID1259411 (Chemical Carcinogenesis Research Information System (CCRIS), 2018)
Active and inactive are the calls of the source. How the calls were made is not given here.

System: rodent carcinogenicity bioassays, tumor incidence
Assay: CCRIS carcinogenicity studies
How it was run: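 NCI-built, expert-reviewed records of carcinogenicity and related test outcomes (mutagenicity, tumor promotion/inhibition) compiled from published and report sources, historical span 1985-2011, not updated.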

CN(C)N=O
carcinogen call (Species: DUCK, Route: ORAL, Tumor Site: Type of Lesion: LIVER): active; positive
carcinogen call (Species: FISH, Route: ORAL, Tumor Site: Type of Lesion: LIVER): active; positive
carcinogen call (Species: GUINEA PIG, Route: ORAL, Tumor Site: Type of Lesion: LIVER): active; positive
carcinogen call (Species: HAMSTER, Route: ORAL, Tumor Site: Type of Lesion: LIVER): active; positive
carcinogen call (Species: HAMSTER, Route: SUBCUTANEOUS, Tumor Site: Type of Lesion: LIVER, KIDNEY, NASAL CAVITY, Tumor Site: Type of Lesion: LIVER, KIDNEY, NASAL CAVITY): active; positive
carcinogen call (Species: HAMSTER, Strain/Sex: SYRIAN/MALE, Route: INTRATRACHEAL, Dose: 0, 0.05, 0.1 MG IN PHOSPHATE BUFFER 1/WK FOR 15 WK (TOTAL DOSE: 0; 0.75; 0.5 MG) (STUDY DURATION: LIFESPAN), Dose: 0, 0.05, 0.1 MG IN PHOSPHATE BUFFER 1/WK FOR 15 WK (TOTAL DOSE: 0; 0.75; 0.5 MG) (STUDY DURATION: LIFESPAN), Tumor Site: Type of Lesion: LIVER: HEMANGIOSARCOMA, TUMOR): active; positive
carcinogen call (Species: HAMSTER, Strain/Sex: SYRIAN/MALE, Route: INTRATRACHEAL, Dose: 0, 0.5 MG IN PHOSPHATE BUFFER ONCE (STUDY DURATION: LIFESPAN)): inactive; negative
carcinogen call (Species: MOUSE, Route: INHALATION, Tumor Site: Type of Lesion: LIVER, LUNG, KIDNEY, Tumor Site: Type of Lesion: LIVER, LUNG, KIDNEY): active; positive
carcinogen call (Species: MOUSE, Route: INTRAPERITONEAL, Tumor Site: Type of Lesion: LIVER, LUNG, KIDNEY, Tumor Site: Type of Lesion: LIVER, LUNG, KIDNEY): active; positive
carcinogen call (Species: MOUSE, Route: ORAL, Tumor Site: Type of Lesion: LIVER, LUNG, KIDNEY, Tumor Site: Type of Lesion: LIVER, LUNG, KIDNEY): active; positive
carcinogen call (Species: MOUSE, Route: SUBCUTANEOUS, Tumor Site: Type of Lesion: LIVER, LUNG): active; positive
carcinogen call (Species: MOUSE, Strain/Sex: C3H/FEMALE, Route: TRANSPLACENTAL, Dose: 0, 0.1 MMOL IN 0.9% STERILE SALINE (7.4 MG/KG) ON DAY 16 OF GESTATION (STUDY DURATION: LIFETIME), Tumor Site: Type of Lesion: LIVER: CARCINOMA): active; positive
carcinogen call (Species: MOUSE, Strain/Sex: C3H/FEMALE, Route: TRANSPLACENTAL, Dose: 0, 0.1 MMOL IN 0.9% STERILE SALINE (7.4 MG/KG) ON DAY 19 OF GESTATION (STUDY DURATION: LIFETIME), Tumor Site: Type of Lesion: LIVER: CARCINOMA): active; positive
carcinogen call (Species: MOUSE, Strain/Sex: C3H/MALE, Route: TRANSPLACENTAL, Dose: 0, 0.1 MMOL IN 0.9% STERILE SALINE (7.4 MG/KG) ON DAY 16 OF GESTATION (STUDY DURATION: LIFETIME)): inactive; negative
carcinogen call (Species: MOUSE, Strain/Sex: C3H/MALE, Route: TRANSPLACENTAL, Dose: 0, 0.1 MMOL IN 0.9% STERILE SALINE (7.4 MG/KG) ON DAY 19 OF GESTATION (STUDY DURATION: LIFETIME), Tumor Site: Type of Lesion: LIVER: CARCINOMA): active; positive
carcinogen call (Species: MOUSE, Strain/Sex: STRAIN-A/FEMALE, Route: INTRAPERITONEAL, Dose: 0, 5, 20 UMOL TOTAL DOSE ADMINISTERED IN SUBDOSES 3/WK FOR 7 WK (STUDY DURATION: 37 WK), Dose: 0, 5, 20 UMOL TOTAL DOSE ADMINISTERED IN SUBDOSES 3/WK FOR 7 WK (STUDY DURATION: 37 WK), Tumor Site: Type of Lesion: LUNG: TUMOR): active; positive
carcinogen call (Species: RABBIT, Route: ORAL, Tumor Site: Type of Lesion: LIVER): active; positive
carcinogen call (Species: RAT, Route: INHALATION, Tumor Site: Type of Lesion: NASAL CAVITY): active; positive
carcinogen call (Species: RAT, Route: ORAL, Tumor Site: Type of Lesion: LIVER, KIDNEY): active; positive
carcinogen call (Species: RAT, Route: SUBCUTANEOUS, INTRAPERITONEAL, Tumor Site: Type of Lesion: KIDNEY): active; positive
carcinogen call (Species: RAT, Strain/Sex: F344/FEMALE, Route: INTRAVESICULAR, Dose: 0, 2 MG IN 0.2 ML ETHANOL: DEIONIZED WATER (1:3) 2/WK FOR 30 WK (TOTAL DOSE: 1.6 MMOL) (STUDY DURATION: LIFESPAN), Tumor Site: Type of Lesion: KIDNEY: MESENCHYMAL NEOPLASM, LUNG: TUMOR): active; positive
carcinogen call (Species: RAT, Strain/Sex: SPRAGUE-DAWLEY/FEMALE, Route: INHALATION, Dose: 0, 0.04, 0.2, 1 PPM 4-5 HR/D 4 D/WK FOR 207 D (ESTIMATED DAILY UPTAKE OF 0; 10; 40; 180 UG/KG) (STUDY DURATION: 207 D), Dose: 0, 0.04, 0.2, 1 PPM 4-5 HR/D 4 D/WK FOR 207 D (ESTIMATED DAILY UPTAKE OF 0; 10; 40; 180 UG/KG) (STUDY DURATION: 207 D), Tumor Site: Type of Lesion: NASAL CAVITY: TUMOR): active; positive
carcinogen call (Species: RAT, Strain/Sex: WISTAR/FEMALE, Route: INTRAPERITONEAL, Dose: 0, 0.04% IN 0.1-0.2 ML PHYSIOLOGICAL SALINE 1/D FOR D 1-5 OF LIFE (TOTAL DOSE 0.2 MG) (STUDY DURATION: LIFESPAN OR 1 YR), Tumor Site: Type of Lesion: LIVER: HEPATOCELLULAR CARCINOMA, HEPATOMA, CHOLANGIOMA, ANGIOMA, KIDNEY: MESENCHYMAL TUMOR, EPITHELIAL TUMOR): active; positive
carcinogen call (Species: RAT, Strain/Sex: WISTAR/FEMALE, Route: INTRAPERITONEAL, Dose: 0, 0.04% IN 0.1-0.2 ML PHYSIOLOGICAL SALINE 1/D FOR D 1-10 OF LIFE (TOTAL DOSE 0.4 MG) (STUDY DURATION: LIFESPAN OR 1 YR, Tumor Site: Type of Lesion: LIVER: HEPATOCELLULAR CARCINOMA, HEPATOMA, CHOLANGIOMA, ANGIOMA, KIDNEY: MESENCHYMAL TUMOR, EPITHELIAL TUMOR): active; positive
carcinogen call (Species: RAT, Strain/Sex: WISTAR/FEMALE, Route: INTRAPERITONEAL, Dose: 0, 0.04% IN 0.1-0.2 ML PHYSIOLOGICAL SALINE 1/D FOR D 1-20 OF LIFE (TOTAL DOSE 0.5 MG) (STUDY DURATION: LIFESPAN OR 1 YR, Tumor Site: Type of Lesion: LIVER: HEPATOCELLULAR CARCINOMA, HEPATOMA, ANGIOMA, KIDNEY: MESENCHYMAL TUMOR): active; positive
carcinogen call (Species: RAT, Strain/Sex: WISTAR/FEMALE, Route: ORAL, Dose: 0, 0.033, 0.066, 0.132, 0.264, 0.528, 1.056, 1.584, 2.112, 2.640, 3.168, 4.224, 5.280, 6.336, 8.448, 16.896 PPM IN DRINK, Dose: 0, 0.033, 0.066, 0.132, 0.264, 0.528, 1.056, 1.584, 2.112, 2.640, 3.168, 4.224, 5.280, 6.336, 8.448, 16.896 PPM IN DRINK, Tumor Site: Type of Lesion: LIVER: HEPATOCELLULAR CARCINOMA, HEMANGIOMA, BILE DUCT: TUMOR): active; positive
carcinogen call (Species: RAT, Strain/Sex: WISTAR/MALE, Route: INTRAPERITONEAL, Dose: 0, 0.04% IN 0.1-0.2 ML PHYSIOLOGICAL SALINE 1/D FOR D 1-5 OF LIFE (TOTAL DOSE 0.2 MG) (STUDY DURATION: LIFESPAN OR 1 YR), Tumor Site: Type of Lesion: LIVER: HEPATOCELLULAR CARCINOMA, HEPATOMA, CHOLANGIOMA, KIDNEY: MESENCHYMAL TUMOR, EPITHELIAL TUMOR): active; positive
carcinogen call (Species: RAT, Strain/Sex: WISTAR/MALE, Route: INTRAPERITONEAL, Dose: 0, 0.04% IN 0.1-0.2 ML PHYSIOLOGICAL SALINE 1/D FOR D 1-10 OF LIFE (TOTAL DOSE 0.4 MG) (STUDY DURATION: LIFESPAN OR 1 YR, Tumor Site: Type of Lesion: LIVER: HEPATOCELLULAR CARCINOMA, HEPATOMA, CHOLANGIOMA, ANGIOMA, KIDNEY: MESENCHYMAL TUMOR, EPITHELIAL TUMOR): active; positive
carcinogen call (Species: RAT, Strain/Sex: WISTAR/MALE, Route: INTRAPERITONEAL, Dose: 0, 0.04% IN 0.1-0.2 ML PHYSIOLOGICAL SALINE 1/D FOR D 1-20 OF LIFE (TOTAL DOSE 0.5 MG) (STUDY DURATION: LIFESPAN OR 1 YR, Tumor Site: Type of Lesion: LIVER: HEPATOCELLULAR CARCINOMA, HEPATOMA, ANGIOMA, KIDNEY: MESENCHYMAL TUMOR): active; positive
carcinogen call (Species: RAT, Strain/Sex: WISTAR/MALE, Route: ORAL, Dose: 0, 0.033, 0.066, 0.132, 0.264, 0.528, 1.056, 1.584, 2.112, 2.640, 3.168, 4.224, 5.280, 6.336, 8.448, 16.896 PPM IN DRINK, Dose: 0, 0.033, 0.066, 0.132, 0.264, 0.528, 1.056, 1.584, 2.112, 2.640, 3.168, 4.224, 5.280, 6.336, 8.448, 16.896 PPM IN DRINK, Tumor Site: Type of Lesion: LIVER: HEPATOCELLULAR CARCINOMA, HEMANGIOMA, BILE DUCT: TUMOR): active; positive

CC1OCCN1N=O (stereo unspecified)
carcinogen call (Species: RAT, Strain/Sex: F344/FEMALE, Route: ORAL, Dose: 40 MG/L IN DRINKING WATER FOR 50 WK, Tumor Site: Type of Lesion: LIVER: HEPATOCELLULAR CARCINOMA, HEMANGIOENDOTHELIAL SARCOMA): active; positive
